From PubChem BioAssay AID1963438 (Molecular Pharmacology Branch, DTP, NCI, 2024) come the findings set out here.

In the experiment the test system is NCI-H510 multicellular tumor spheroid growth, % test/control. Nature of the experiment: Anticancer human tumor NCI-H510 cell line growth inhibition [Asc].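 As to all read-outs here: spheroids exposed to agents for 7 days.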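 As to viability, T/C: 100% = DMSO vehicle control wells.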 The following applies: for viability, T/C: stronger effect = lower value. The procedure, abridged:
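Stromal components (HUVEC and hMSC) are co-assembled with the cancer cells into multicellular spheroids. Drugs are then added singly or paired, at concentrations falling by half-log increments from a clinically achievable maximum, capped at 10 microM without known Cmax.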

Several values for one entry are separate records, joined by “and”; a condition that tells them apart may be missing. Identical values can stand only once.

Take `C=CC(=O)N1CCN(c2nc(=O)n(-c3c(C)ccnc3C(C)C)c3nc(-c4c(O)cccc4F)c(F)cc23)C(C)C1` (stereo unspecified) + CNC(C)C(=O)NC1CN(S(=O)(=O)c2cccc(S(=O)(=O)N3CCC4CCC(C(=O)NC(c5ccccc5)c5ccccc5)N4C(=O)C(NC(=O)C(C)NC)C3)c2)CCC2CCC(C(=O)NC(c3ccccc3)c3ccccc3)N2C1=O: the IC50 was > 10 µM (curve of first compound, second compound 0.01 µM); > 10 µM (curve of first compound, second compound 0.0316 µM); > 10 µM (curve of first compound, second compound 0.1 µM); > 10 µM (curve of first compound, second compound 0.316 µM); > 10 µM (curve of first compound, second compound 1 µM). Further, the viability, T/C by setting is: (second compound 0.01 µM, first compound 0.0316 µM) 115%; (second compound 0.01 µM, first compound 0.1 µM) 101%; (second compound 0.01 µM, first compound 0.316 µM) 102%; (second compound 0.01 µM, first compound 1 µM) 115%; (second compound 0.01 µM, first compound 3.16 µM) 113%; (second compound 0.01 µM, first compound 10 µM) 115%. In addition, the viability, T/C was 105% (second compound 0.0316 µM, first compound 0.0316 µM); 108% (second compound 0.0316 µM, first compound 0.1 µM); 95.6% (second compound 0.0316 µM, first compound 0.316 µM); 119% (second compound 0.0316 µM, first compound 1 µM); 104% (second compound 0.0316 µM, first compound 3.16 µM); 110% (second compound 0.0316 µM, first compound 10 µM). Besides, the viability, T/C is 112% (second compound 0.1 µM, first compound 0.0316 µM); 95.8% (second compound 0.1 µM, first compound 0.1 µM); 102% (second compound 0.1 µM, first compound 0.316 µM); 91.9% (second compound 0.1 µM, first compound 1 µM); 105% (second compound 0.1 µM, first compound 3.16 µM); 106% (second compound 0.1 µM, first compound 10 µM). Also, the viability, T/C was 110% (second compound 0.316 µM, first compound 0.0316 µM); 113% (second compound 0.316 µM, first compound 0.1 µM); 102% (second compound 0.316 µM, first compound 0.316 µM); 95.8% (second compound 0.316 µM, first compound 1 µM); 104% (second compound 0.316 µM, first compound 3.16 µM); 93.3% (second compound 0.316 µM, first compound 10 µM). Also, the viability, T/C was 96.5% (second compound 1 µM, first compound 0.0316 µM); 105% (second compound 1 µM, first compound 0.1 µM); 107% (second compound 1 µM, first compound 0.316 µM); 101% (second compound 1 µM, first compound 1 µM); 98.2% (second compound 1 µM, first compound 3.16 µM); 110% (second compound 1 µM, first compound 10 µM).

For `O=C(c1cc(Cc2n[nH]c(=O)c3ccccc23)ccc1F)N1CCN(C(=O)C2CC2)CC1`, the viability, T/C reads like this: (compound 0.0316 µM) 93% and 95.9% and 99.4%; (compound 0.1 µM) 101% and 80.6% and 86.1%; (compound 0.316 µM) 69.5% and 59% and 83.9%; (compound 1 µM) 60% and 90.4% and 76.8%; (compound 3.16 µM) 29% and 43.1% and 88%. For the same molecule, the half-maximal inhibitory concentration (IC50) (curve of compound) was 1.3 µM and 2.57 µM and > 10 µM.
